Our source for the IC50 values is BindingDB's records for doi:10.1002/cbic.201500668 (University of Siena, 2016).

Assay [1] deals with T1, Gag-Pol polyprotein (Human immunodeficiency virus type 1 group M subtype B (isolate NY5), UniProt P12497). The assay is described as follows: RNA-dependent DNA Polymerase (RDDP) Assay. As to conditions: pH 8.1; 37 °C. How it is done:
RNA-dependent DNA polymerase (RDDP) activity was measured as described[J. Microbiol. […] After enzyme addition, the reaction mixture was incubated for 30 min at 37 °C, then the reaction was stopped by addition of EDTA.

Assay [2] deals with T1, Gag-Pol polyprotein. In words: RNase H (RH) Assay. The note with it: pH 7.8; 37 °C. How it is done: HIV RT-associated RNase H activity was measured as previously described.[J. Med. Chem. 2014, 57:3223-3234] Briefly, the reaction mixture comprised Tris HCl ([…], 50 mm, pH 7.8) containingMgCl2 (6 mm), dithiothreitol (1 mm), KCl (80 mm), hybrid RNA/DNA 5'-GAUCU GAGCC UGGGA GCU-Fluorescin-3' (0.25 mm; HPLC, dry, QC: Mass Check; Metabion, Steinkirchen, Germany), 5'-Dabcyl-AGCTC CCAGG CTCAG ATC-3' (HPLC, dry, QC: Mass Check), and HIV-1 RT (20 ng, according to a linear range of dose-activity curve). The reaction mixture was incubated for 1 h at 37 °C, and the reaction was stopped by addition of EDTA; products were measured with a Victor 3 multilabel counter plate reader (model 1420-051; PerkinElmer) equipped with filters (lex=490 nm, lem=528 nm).

A value given as a limit tells only on which side of the number the result lay.

On to `CCOc1ccc(N2CC(O)Cn3c2nc2c3c(=O)n(CC(N)=O)c(=O)n2C)cc1` (stereo unspecified) [STOCK5S-55040 (5)], for which the IC50 (in general, the concentration that inhibits the measured activity by half) in assay [1] was over 100 µM. In the case of `CCCCCn1c(=O)c2c(nc3n2CCCN3c2ccc(Oc3ccccc3)cc2)n(C)c1=O` [STOCK5S-18255 (2)], the concentration for half-maximal inhibition (IC50) in assay [1] came to 69 µM; in assay [2] it was 25 µM. `CCc1ccc(N2CC(O)Cn3c2nc2c3c(=O)n(C)c(=O)n2C)cc1` (stereo unspecified) [STOCK2S-18057 (3)]: the half-inhibitory concentration (IC50) in assay [1] was over 100 µM. In the case of `CCOc1ccc(N2CC(O)Cn3c2nc2c3c(=O)n(CC(=O)OCc3ccccc3)c(=O)n2C)cc1` (stereo unspecified) [STOCK4S-60534 (6)], the results for the IC50 in assay [1] and in assay [2] were 28.5 µM and 33 µM, respectively.

`CCOC(=O)C(=O)CC(=O)/C=C/c1cccn1Cc1ccccc1Cl` [RDS1759] came in with an IC50 in assay [2] of 7.5 µM.

In the case of `CCCCCn1c(=O)c2c(nc3n2CC(C)CN3c2ccc(OC)cc2)n(C)c1=O` (stereo unspecified) [STOCK4S-37006 (4)], the results for the IC50 in assay [1] and in assay [2] were 100 µM and 97 µM, respectively. Take `Cn1c(=O)c2c(nc3n2CC(O)CN3c2ccc(O)cc2)n(C)c1=O` (stereo unspecified) [MAS0 (1)]: the IC50 was over 100 µM in assay [1] and 100 µM in assay [2].
